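Abbreviation: GI50, concentration required for 50% inhibition of growth. At the TGI there is no net growth.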
Assays:
Assay in all cases: NCI tumour cell line growth inhibition, 384-well format
786-0 renal = test system: 786-0 renal
A498 renal = test system: A498 renal
A549 NSCLC = test system: A549 NSCLC
ACHN renal = test system: ACHN renal
BT-549 breast = test system: BT-549 breast
CAKI-1 renal = test system: CAKI-1 renal
CCRF-CEM leukemia = test system: CCRF-CEM leukemia
COLO 205 colon = test system: COLO 205 colon
DU-145 prostate = test system: DU-145 prostate
EKVX NSCLC = test system: EKVX NSCLC
HCC-2998 colon = test system: HCC-2998 colon
HCT-15 colon = test system: HCT-15 colon
HL-60(TB) leukemia = test system: HL-60(TB) leukemia
HOP-62 NSCLC = test system: HOP-62 NSCLC
HOP-92 NSCLC = test system: HOP-92 NSCLC
HS 578T breast = test system: HS 578T breast
HT29 colon = test system: HT29 colon
IGROV1 ovarian = test system: IGROV1 ovarian
K-562 leukemia = test system: K-562 leukemia
KM12 colon = test system: KM12 colon
LOX IMVI melanoma = test system: LOX IMVI melanoma
M14 melanoma = test system: M14 melanoma
MALME-3M melanoma = test system: MALME-3M melanoma
MCF7 breast = test system: MCF7 breast
MDA-MB-231 breast = test system: MDA-MB-231 breast
MDA-MB-435 melanoma = test system: MDA-MB-435 melanoma
MDA-MB-468 breast = test system: MDA-MB-468 breast
MOLT-4 leukemia = test system: MOLT-4 leukemia
NCI-H226 lung = test system: NCI-H226 lung
NCI-H23 lung = test system: NCI-H23 lung
NCI-H322M lung = test system: NCI-H322M lung
NCI-H460 NSCLC = test system: NCI-H460 NSCLC
NCI-H522 lung = test system: NCI-H522 lung
NCI/ADR-RES ovarian = test system: NCI/ADR-RES ovarian
OVCAR-3 ovarian = test system: OVCAR-3 ovarian
OVCAR-4 ovarian = test system: OVCAR-4 ovarian
OVCAR-5 ovarian = test system: OVCAR-5 ovarian
OVCAR-8 ovarian = test system: OVCAR-8 ovarian
PC-3 prostate = test system: PC-3 prostate
RPMI-8226 leukemia = test system: RPMI-8226 leukemia
RXF 393 renal = test system: RXF 393 renal
SF-268 CNS = test system: SF-268 CNS
SF-295 CNS = test system: SF-295 CNS
SF-539 CNS = test system: SF-539 CNS
SK-MEL-28 melanoma = test system: SK-MEL-28 melanoma
SK-MEL-5 melanoma = test system: SK-MEL-5 melanoma
SK-OV-3 ovarian = test system: SK-OV-3 ovarian
SN12C renal = test system: SN12C renal
SNB-19 CNS = test system: SNB-19 CNS
SNB-75 CNS = test system: SNB-75 CNS
SR leukemia = test system: SR leukemia
SW-620 colon = test system: SW-620 colon
T-47D breast = test system: T-47D breast
TK-10 renal = test system: TK-10 renal
UACC-257 melanoma = test system: UACC-257 melanoma
UACC-62 melanoma = test system: UACC-62 melanoma
UO-31 renal = test system: UO-31 renal

CCN(CC)CCCC(C)Nc1c2ccc(Cl)cc2nc2ccc(OC)cc12 (centres undefined)
GI50 ([…]-0 renal): 1180 nM
TGI (786-0 renal): 2440 nM
GI50 (A498 renal): 880 nM
TGI (A498 renal): 2110 nM
GI50 (A549 NSCLC): 1510 nM
TGI (A549 NSCLC): 2910 nM
GI50 (ACHN renal): 1040 nM
TGI (ACHN renal): 2440 nM
GI50 (BT-549 breast): 1500 nM
TGI (BT-549 breast): 2840 nM
GI50 (CAKI-1 renal): 1370 nM
TGI (CAKI-1 renal): 2740 nM
GI50 (CCRF-CEM leukemia): 609 nM
TGI (CCRF-CEM leukemia): 1660 nM
GI50 (COLO 205 colon): 1310 nM
TGI (COLO 205 colon): 2600 nM
GI50 (DU-145 prostate): 1720 nM
TGI (DU-145 prostate): 3530 nM
GI50 (EKVX NSCLC): 1330 nM
TGI (EKVX NSCLC): 2820 nM
GI50 (HCC-2998 colon): 985 nM
TGI (HCC-2998 colon): 2150 nM
GI50 (HCT-15 colon): 1060 nM
TGI (HCT-15 colon): 2300 nM
GI50 (HL-60(TB) leukemia): 1640 nM
TGI (HL-60(TB) leukemia): 3000 nM
GI50 (HOP-62 NSCLC): 1100 nM
TGI (HOP-62 NSCLC): 2440 nM
GI50 (HOP-92 NSCLC): 520 nM
TGI (HOP-92 NSCLC): 1820 nM
GI50 (HS 578T breast): 1710 nM
TGI (HS 578T breast): 3080 nM
GI50 (HT29 colon): 1330 nM
TGI (HT29 colon): 2630 nM
GI50 (IGROV1 ovarian): 1890 nM
TGI (IGROV1 ovarian): 3720 nM
GI50 (K-562 leukemia): 1080 nM
TGI (K-562 leukemia): 2290 nM
GI50 (KM12 colon): 1370 nM
TGI (KM12 colon): 3130 nM
GI50 (LOX IMVI melanoma): 1390 nM
TGI (LOX IMVI melanoma): 2700 nM
GI50 (M14 melanoma): 1790 nM
TGI (M14 melanoma): 3180 nM
GI50 (MALME-3M melanoma): 1600 nM
TGI (MALME-3M melanoma): 2950 nM
GI50 (MCF7 breast): 1410 nM
TGI (MCF7 breast): 3200 nM
GI50 (MDA-MB-231 breast): 1180 nM
TGI (MDA-MB-231 breast): 2560 nM
GI50 (MDA-MB-435 melanoma): 1750 nM
TGI (MDA-MB-435 melanoma): 3140 nM
GI50 (MDA-MB-468 breast): 322 nM
TGI (MDA-MB-468 breast): 1230 nM
GI50 (MOLT-4 leukemia): 212 nM
TGI (MOLT-4 leukemia): 357 nM
GI50 (NCI-H226 lung): 1330 nM
TGI (NCI-H226 lung): 2800 nM
GI50 (NCI-H23 lung): 1600 nM
TGI (NCI-H23 lung): 2960 nM
GI50 (NCI-H322M lung): 1290 nM
TGI (NCI-H322M lung): 2630 nM
GI50 (NCI-H460 NSCLC): 1100 nM
TGI (NCI-H460 NSCLC): 2310 nM
GI50 (NCI-H522 lung): 1470 nM
TGI (NCI-H522 lung): 2800 nM
GI50 (NCI/ADR-RES ovarian): 1550 nM
TGI (NCI/ADR-RES ovarian): 2940 nM
GI50 (OVCAR-3 ovarian): 1760 nM
TGI (OVCAR-3 ovarian): 3360 nM
GI50 (OVCAR-4 ovarian): 1550 nM
TGI (OVCAR-4 ovarian): 2920 nM
GI50 (OVCAR-5 ovarian): 1920 nM
TGI (OVCAR-5 ovarian): 4160 nM
GI50 (OVCAR-8 ovarian): 1070 nM
TGI (OVCAR-8 ovarian): 2260 nM
GI50 (PC-3 prostate): 1780 nM
TGI (PC-3 prostate): 3380 nM
GI50 (RPMI-8226 leukemia): 1490 nM
TGI (RPMI-8226 leukemia): 2810 nM
GI50 (RXF 393 renal): 668 nM
TGI (RXF 393 renal): 1980 nM
GI50 (SF-268 CNS): 1640 nM
TGI (SF-268 CNS): 3060 nM
GI50 (SF-295 CNS): 1740 nM
TGI (SF-295 CNS): 3140 nM
GI50 (SF-539 CNS): 1120 nM
TGI (SF-539 CNS): 2330 nM
GI50 (SK-MEL-28 melanoma): 1870 nM
TGI (SK-MEL-28 melanoma): 3270 nM
GI50 (SK-MEL-5 melanoma): 1960 nM
TGI (SK-MEL-5 melanoma): 3380 nM
GI50 (SK-OV-3 ovarian): 1200 nM
TGI (SK-OV-3 ovarian): 2700 nM
GI50 (SN12C renal): 1410 nM
TGI (SN12C renal): 2860 nM
GI50 (SNB-19 CNS): 1940 nM
TGI (SNB-19 CNS): 4030 nM
GI50 (SNB-75 CNS): 1330 nM
TGI (SNB-75 CNS): 2610 nM
GI50 (SR leukemia): 401 nM
TGI (SR leukemia): 1320 nM
GI50 (SW-620 colon): 1390 nM
TGI (SW-620 colon): 2940 nM
GI50 (T-47D breast): 1640 nM
TGI (T-47D breast): 3070 nM
GI50 (TK-10 renal): 1950 nM
TGI (TK-10 renal): 3690 nM
GI50 (UACC-257 melanoma): 1890 nM
TGI (UACC-257 melanoma): 3300 nM
GI50 (UACC-62 melanoma): 1690 nM
TGI (UACC-62 melanoma): 3060 nM
GI50 (UO-31 renal): 1850 nM
TGI (UO-31 renal): 3730 nM
